Measured values: patent US10239830B2, “Benzenesulfonamide upregulators of NPC1 for Neimann-Pick disease and other lysosomal storage disorders” (ICAHN SCHOOL OF MEDICINE AT MOUNT SINAI, priority 2015, dated 2019)
Marks after values point to notes of the source that are not given here.

Columns and labels:
Format in all cases: cell-based, human
[1] = test system: NPC1 promoter; experiment: qHTS of NPC1 Promoter-Luciferase Reporter Gene Assay (firefly, Huh7); conditions: 24 hours
Experimental: (§1) qHTS of NPC1 Promoter-Luciferase Reporter Gene Assay. For the second primary screen, a promoter assay was developed by engineering a vector using approximately 1.5 kb of the NPC1 promoter to drive the expression of the firefly luciferase reporter gene. Thus, NPC1 promoter activation results in luciferase expression. This vector was used to generate Huh7 cell lines stably expressing the NPC1-luciferase vector. […] Cells were plated for assays in OPTI-MEM I reduced-serum medium supplemented with 10% FBS at 1,500 cells/well in 5 μL in 1,536-well white opaque plates with 23 nL/well of test compound in DMSO solution. The assay plates were incubated at 37° C. for 24 hours, after which 3 μL/well BriteLite plus luciferase detection reagent mixture (Perkin Elmer) was added. Luminescence signal was measured in a ViewLux plate reader (Perkin Elmer) after a 10 minute incubation at room temperature.

[2] = molecular target: Rab9 promoter; experiment: qHTS of Rab9 Promoter-Luciferase Reporter Gene Assay (firefly, Huh7); conditions: 24 hours
Experimental: as §1, with “Rab9” for “NPC1”, “the” for “the second”, “Rab9-luciferase” for “NPC1-luciferase”

[3] = test system: NPC1 promoter; experiment: Confirmation Assay of NPC1 Promoter Activators: Renilla Luciferase (Huh7); conditions: Homo sapiens, Huh-7, 24 hours; for Emax: read-out: NPC1-renilla Eff.
Experimental: Confirmation Assay of NPC1 Promoter Activators: Renilla Luciferase. The confirmation assay was carried out using an assay in which the NPC1 promoter drives the expression of a different luciferase protein from the one used in the primary screen. The NPC1 promoter was cloned in front of the renilla luciferase reporter gene. NPC1 promoter activation results in renilla luciferase expression. This vector was used to generate Huh7 cell lines stably expressing the NPC1-renilla luciferase vector. These cells were propagated and maintained in medium containing RPMI-1640 supplemented with 10% FBS, 2 mM L-glutamine, and 50 μg/mL penicillin/streptomycin. Cells were plated for assays in OPTI-MEM I reduced-serum medium supplemented with 10% FBS at 1,500 cells/well in 5 μL in 1,536-well white opaque plates and then 23 nL/well of compound in DMSO solution were added through pin transfer. The assay plates were incubated at 37° C. for 24 hours. The Amplite luciferase reporter gene assay kit was purchased from ABD Bioquest and prepared/stored according to manufacturer's recommendations. Luminescence signal was measured in a ViewLux plate reader (Perkin Elmer) after a 10 minute incubation at room temperature.

[4] = test system: NPC1 patient cell fibroblasts; experiment: Filipin Staining Assay to Detect Free Cholesterol Accumulation in NPC Cells; conditions: filipin fluorescence relative to untreated cells; for activity at 1 µM: Homo sapiens, Fibroblast, read-out: % storage at 1 μM
Experimental: Filipin Staining Assay to Detect Free Cholesterol Accumulation in NPC Cells. Compounds were evaluated for their effect on the NPC1 cellular phenotype by staining treated NPC1 patient cell fibroblasts with filipin, which recognizes free unesterified cholesterol. Compounds that upregulate the NPC1 promoter were expected to reduce the filipin staining in treated NPC1 fibroblasts compared to untreated NPC1 fibroblasts, indicating clearance of unesterified cholesterol. Conversely, inhibitors of the NPC1 promoter were expected to increase filipin staining in wild-type fibroblasts, thus indicating the emergence of an NPC-like phenotype. Briefly, cells were grown in lipoprotein-deficient medium for 3-4 days, and then the medium was replaced and supplemented with test compound plus 50 μg/mL low-density lipoprotein (LDL). After 24-48 hours, cells were stained with filipin and scored under the 40× magnification filter using the integrated morphometry function in the Metavue program (Molecular Devices). Test compounds that decreased the intensity of filipin fluorescence to less than 50% of untreated cells are considered of particular interest.

SMILES	EC50 [2] [µM]	Rab9 Eff. [2] [%]	EC50 [1] [µM]	NPC1 Eff. [1]	other results
COc1ccc(NC(=O)c2c(C)cccc2C)cc1S(=O)(=O)Nc1ccc(Br)cc1 [Example 46]					EC50 [3]: 1.1 µM; Emax [3]: 192%; activity at 1 µM [4]: 46%; % storage at 0.1 μM [4]: 26%
COc1ccc(NC(=O)c2[nH]c(C)c(C(C)=O)c2C)cc1S(=O)(=O)Nc1ccc(Cl)cc1 [Example 58]					% storage at 1 μM [4]: 58%
COc1ccc(NC(=O)c2ccccc2)cc1S(=O)(=O)Nc1ccc(Br)cc1 [Example 45]					EC50 [3]: 1.1 µM; Emax [3]: 223%; activity at 1 µM [4]: 60%
COc1ccc(NC(=O)c2[nH]c(C)c(C(C)=O)c2C)cc1S(=O)(=O)C1CCCCCC1 [Example 53]					activity at 1 µM [4]: 24%; % storage at 0.1 μM [4]: 55%
CC(=O)c1cccc(C(=O)Nc2cccc(S(=O)(=O)N(C)C)c2)c1 [Example 19]	19.4	94	8.6	40%	
CC(=O)c1c(C)[nH]c(C(=O)Nc2cccc(S(=O)(=O)Nc3ccc(Br)c(F)c3)c2)c1C [Example 23]			15.4	71^a %	
Cc1cc(C)c(C(=O)Nc2cccc(S(=O)(=O)N(C)C)c2)[nH]1 [Example 8]	38.7	82	17.2	48%	
COc1ccc(NC(=O)c2ccc[nH]2)cc1S(=O)(=O)Nc1ccc(Br)cc1 [Example 43]					EC50 [3]: 4.3 µM; Emax [3]: 88%
CC(=O)c1c(C)[nH]c(C(=O)Nc2ccc(OCCCN(C)C)c(S(=O)(=O)Nc3ccc(Br)cc3)c2)c1C [Example 54]					% storage at 1 μM [4]: 60%
Cc1cccc(C)c1C(=O)Nc1cccc(S(=O)(=O)N(C)C)c1 [Example 17]	5.5	131	5.4	127%	
COc1ccc(NC(=O)c2cccnc2C)cc1S(=O)(=O)Nc1ccc(Br)cc1 [Example 49]					EC50 [3]: 5.5 µM; Emax [3]: 395%; activity at 1 µM [4]: 30%
Cc1ccc(C(=O)Nc2cccc(S(=O)(=O)N(C)C)c2)c(C)c1 [Example 18]	12.2	97	5.4	79%	
COc1ccc(NC(=O)c2c[nH]c(-c3ccccc3)n2)cc1S(=O)(=O)Nc1ccc(Br)cc1 [Example 57]					% storage at 0.1 μM [4]: 70%; % storage at 1 μM [4]: 41%
CC(=O)c1c(C)[nH]c(C(=O)Nc2cccc(S(=O)(=O)Nc3cccc(C#N)c3)c2)c1C [Example 31]					NPC1 EC50 [1]: Inactive; % storage at 1 μM [4]: 56%
COc1ccc(NC(=O)c2cccnc2)cc1S(=O)(=O)Nc1ccc(Br)cc1 [Example 51]					EC50 [3]: 2.7 µM; Emax [3]: 257%; activity at 1 µM [4]: 29%
CN(C)S(=O)(=O)c1cccc(NC(=O)c2ccccc2C(F)(F)F)c1 [Example 16]	1.4	155	1.2	125%	
Cc1cccc(C(=O)Nc2cccc(S(=O)(=O)N(C)C)c2)c1 [Example 15]	19.4	75	6.1	81%	
COc1ccc(NC(=O)c2c[nH]cn2)cc1S(=O)(=O)Nc1ccc(Br)cc1 [Example 56]					% storage at 0.1 μM [4]: 50%; % storage at 1 μM [4]: 48%
COc1ccc(NC(=O)c2c(C)c(C(C)=O)c(C)n2C)cc1S(=O)(=O)Nc1ccc(Br)cc1 [Example 44]					EC50 [3]: 0.5 µM; Emax [3]: 245%
CC(=O)c1c(C)[nH]c(C(=O)Nc2cccc(S(=O)(=O)Nc3ccc(Br)cc3)c2)c1C [Example 32]			4.3	80%	
CCc1ccc(NC(=O)c2[nH]c(C)c(C(C)=O)c2C)cc1S(=O)(=O)Nc1ccc(Br)cc1 [Example 35]			0.7	208%	
CC(=O)c1c(C)[nH]c(C(=O)Nc2cccc(S(=O)(=O)N3CCCC3)c2)c1C [Example 3]	7.7	149	6.1	112%	
CC(=O)c1c(C)[nH]c(C(=O)Nc2ccc(C)c(S(=O)(=O)Nc3ccc(Br)cc3)c2)c1C [Example 34]			1.7	248%	
Cc1ccccc1C(=O)Nc1cccc(S(=O)(=O)N(C)C)c1 [Example 14]	17.3	114	4.8	51%	
COc1ccc(NC(=O)c2ncc[nH]2)cc1S(=O)(=O)Nc1ccc(Br)cc1 [Example 55]					% storage at 1 μM [4]: 30%
COc1ccc(NC(=O)c2[nH]c(C)cc2C)cc1S(=O)(=O)Nc1ccc(Br)cc1 [Example 42]					EC50 [3]: 2.7 µM; Emax [3]: 119%; activity at 1 µM [4]: 47%; % storage at 0.1 μM [4]: 49%
COc1ccc(NC(=O)c2[nH]c(C)c(C(C)=O)c2C)cc1S(=O)(=O)C1CCc2ccccc2CC1 [Example 59]					activity at 1 µM [4]: 40%
CC(=O)c1c(C)[nH]c(C(=O)Nc2cccc(S(=O)(=O)N3CCCCC3)c2)c1C [Example 4]	1.7	134	2.7	163%	

The next lines start with results.

EC50 [2] [µM]	Rab9 Eff. [2] [%]	EC50 [1] [µM]	NPC1 Eff. [1]	SMILES	other results
10.9	82			CC(=O)c1c(C)[nH]c(C(=O)Nc2cccc(S(=O)(=O)N3CCN(C)CC3)c2)c1C [Example 6]	NPC1 EC50 [1]: Inactive
		0.9	129%	COc1ccc(NC(=O)c2[nH]c(C)c(C(C)=O)c2C)cc1S(=O)(=O)Nc1cccc(C#N)c1 [Example 40]	% storage at 1 μM [4]: 29%
		8.6	47%	CCc1c(C)[nH]c(C(=O)Nc2cccc(S(=O)(=O)N(C)C)c2)c1C [Example 9]	Rab9 EC50 [2]: Inactive
10.9	110			CC(=O)c1ccc(C(=O)Nc2cccc(S(=O)(=O)N(C)C)c2)cc1 [Example 20]	NPC1 EC50 [1]: Inactive
		3.4	259%	CCc1ccc(NC(=O)c2[nH]c(C)c(C(C)=O)c2C)cc1S(=O)(=O)Nc1ccc(C#N)cc1 [Example 38]	% storage at 1 μM [4]: 62%
		21.6	83%	CC(=O)c1c(C)c(C(=O)Nc2cccc(S(=O)(=O)N(C)C)c2)n(C)c1C [Example 10]	Rab9 EC50 [2]: Inactive
12.2	122	8.3	84%	CC(=O)c1c(C)[nH]c(C(=O)Nc2cccc(S(=O)(=O)N3CCOCC3)c2)c1C [Example 7]	
6.9	54			Cc1ccc(C(=O)Nc2cccc(S(=O)(=O)N(C)C)c2)cc1 [Example 13]	NPC1 EC50 [1]: Inactive
8.7	181	7.7	155%	CCN(CC)S(=O)(=O)c1cccc(NC(=O)c2[nH]c(C)c(C(C)=O)c2C)c1 [Example 2]	
		8.7	100%	COc1ccc(NC(=O)c2[nH]c(C)c(C(C)=O)c2C)cc1S(=O)(=O)Nc1ccc(C#N)cc1 [Example 41]	% storage at 1 μM [4]: 58%
2	153	2.7 to 2.9	196-205%	CC(=O)c1c(C)[nH]c(C(=O)Nc2cccc(S(=O)(=O)N3CCCCCC3)c2)c1C [Example 5]	
		2.7	140%	CCc1ccc(NC(=O)c2[nH]c(C)c(C(C)=O)c2C)cc1S(=O)(=O)Nc1cccc(C#N)c1 [Example 33]	% storage at 0.1 μM [4]: 43%; % storage at 1 μM [4]: 35%
